ChEMBL document CHEMBL3751759, “TRPA1 channels as targets for resveratrol and related stilbenoids” (Bioorg Med Chem Lett, 2016)

Key:
[1] = target: T1, Transient receptor potential cation channel subfamily A member 1 (Rattus norvegicus, UniProt Q6RI86); assay: Antagonist activity at rat TRPA1 expressed in HEK293 cells assessed as inhibition of allyl isothiocyanate-induced increase of intracellular calcium level; format: cell-based
[2] = target: T2, Transient receptor potential cation channel subfamily V member 1 (Homo sapiens, UniProt Q8NER1); assay: Agonist activity at human TRPV1 expressed in HEK293 cells assessed as induction of intracellular calcium level relative to […]; format: cell-based
[3] = target: Transient receptor potential cation channel subfamily A member 1 (Rattus norvegicus) (UniProt Q6RI86); assay: Agonist activity at rat TRPA1 expressed in HEK293 cells assessed as induction of intracellular calcium level relative to allyl isothiocyanate; format: cell-based
[4] = target: T1, Transient receptor potential cation channel subfamily A member 1; assay: Agonist activity at rat TRPA1 expressed in HEK293 cells assessed as induction of intracellular calcium level; format: cell-based
[5] = target: T2, Transient receptor potential cation channel subfamily V member 1; assay: Antagonist activity at human TRPV1 expressed in HEK293 cells assessed as inhibition of […]-induced increase of intracellular calcium level; format: cell-based
[6] = target: Transient receptor potential cation channel subfamily A member 1 (Homo sapiens, UniProt O75762); assay: Antagonist activity at human TRPA1 expressed in HEK293 cells assessed as inhibition of allyl isothiocyanate-induced increase of intracellular calcium level; format: cell-based
[7] = target: T1, Transient receptor potential cation channel subfamily A member 1; assay: Antagonist activity at rat TRPA1 expressed in HEK293 cells assessed as inhibition of AITC-induced increase of intracellular calcium level; format: cell-based
[8] = target: T1, Transient receptor potential cation channel subfamily A member 1; assay: Agonist activity at rat TRPA1 expressed in HEK293 cells assessed as induction of intracellular calcium level in presence of AITC; format: cell-based
[9] = target: T2, Transient receptor potential cation channel subfamily V member 1; assay: Antagonist activity at human TRPV1 expressed in HEK293 cells assessed as inhibition of capsaicin-induced increase of intracellular calcium level; format: cell-based
[10] = target: T2, Transient receptor potential cation channel subfamily V member 1; assay: Antagonist activity at TRPV1 (unknown origin) in DRG neurons
[11] = target: T2, Transient receptor potential cation channel subfamily V member 1; assay: Antagonist activity at human TRPV1 expressed in HEK293 cells; format: cell-based

Chain of Transient receptor potential cation channel subfamily A member 1 (Rattus norvegicus) (Q6RI86 whole entry): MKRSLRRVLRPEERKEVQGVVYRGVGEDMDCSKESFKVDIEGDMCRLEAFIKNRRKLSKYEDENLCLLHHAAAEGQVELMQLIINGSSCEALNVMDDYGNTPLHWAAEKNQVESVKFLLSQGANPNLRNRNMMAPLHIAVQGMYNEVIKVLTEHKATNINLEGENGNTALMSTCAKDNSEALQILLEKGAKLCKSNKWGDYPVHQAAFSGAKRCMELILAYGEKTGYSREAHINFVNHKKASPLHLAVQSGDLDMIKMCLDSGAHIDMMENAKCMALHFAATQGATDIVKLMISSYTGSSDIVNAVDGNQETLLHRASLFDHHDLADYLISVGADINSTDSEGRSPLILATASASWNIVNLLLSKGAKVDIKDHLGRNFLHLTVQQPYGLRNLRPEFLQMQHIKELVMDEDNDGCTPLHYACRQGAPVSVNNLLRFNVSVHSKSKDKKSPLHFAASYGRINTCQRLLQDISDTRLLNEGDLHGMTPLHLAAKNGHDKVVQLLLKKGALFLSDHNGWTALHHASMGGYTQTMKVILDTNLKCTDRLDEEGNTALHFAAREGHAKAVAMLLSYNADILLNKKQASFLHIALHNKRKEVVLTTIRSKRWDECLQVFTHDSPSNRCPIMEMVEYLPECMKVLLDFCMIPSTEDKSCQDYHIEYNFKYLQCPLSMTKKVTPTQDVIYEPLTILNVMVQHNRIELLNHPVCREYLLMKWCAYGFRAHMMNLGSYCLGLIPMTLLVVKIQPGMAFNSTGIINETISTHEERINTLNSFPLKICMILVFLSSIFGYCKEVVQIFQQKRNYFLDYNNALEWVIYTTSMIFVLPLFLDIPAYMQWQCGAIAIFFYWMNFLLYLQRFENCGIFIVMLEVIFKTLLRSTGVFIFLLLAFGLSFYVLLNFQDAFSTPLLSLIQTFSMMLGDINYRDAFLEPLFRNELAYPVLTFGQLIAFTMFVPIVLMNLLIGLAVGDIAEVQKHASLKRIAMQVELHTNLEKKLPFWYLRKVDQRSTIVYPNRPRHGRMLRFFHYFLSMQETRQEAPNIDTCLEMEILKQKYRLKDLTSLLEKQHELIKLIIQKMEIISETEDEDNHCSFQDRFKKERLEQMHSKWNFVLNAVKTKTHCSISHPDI
T1 sequence (Q6RI86 whole entry): as above
T2 sequence (Q8NER1 whole entry): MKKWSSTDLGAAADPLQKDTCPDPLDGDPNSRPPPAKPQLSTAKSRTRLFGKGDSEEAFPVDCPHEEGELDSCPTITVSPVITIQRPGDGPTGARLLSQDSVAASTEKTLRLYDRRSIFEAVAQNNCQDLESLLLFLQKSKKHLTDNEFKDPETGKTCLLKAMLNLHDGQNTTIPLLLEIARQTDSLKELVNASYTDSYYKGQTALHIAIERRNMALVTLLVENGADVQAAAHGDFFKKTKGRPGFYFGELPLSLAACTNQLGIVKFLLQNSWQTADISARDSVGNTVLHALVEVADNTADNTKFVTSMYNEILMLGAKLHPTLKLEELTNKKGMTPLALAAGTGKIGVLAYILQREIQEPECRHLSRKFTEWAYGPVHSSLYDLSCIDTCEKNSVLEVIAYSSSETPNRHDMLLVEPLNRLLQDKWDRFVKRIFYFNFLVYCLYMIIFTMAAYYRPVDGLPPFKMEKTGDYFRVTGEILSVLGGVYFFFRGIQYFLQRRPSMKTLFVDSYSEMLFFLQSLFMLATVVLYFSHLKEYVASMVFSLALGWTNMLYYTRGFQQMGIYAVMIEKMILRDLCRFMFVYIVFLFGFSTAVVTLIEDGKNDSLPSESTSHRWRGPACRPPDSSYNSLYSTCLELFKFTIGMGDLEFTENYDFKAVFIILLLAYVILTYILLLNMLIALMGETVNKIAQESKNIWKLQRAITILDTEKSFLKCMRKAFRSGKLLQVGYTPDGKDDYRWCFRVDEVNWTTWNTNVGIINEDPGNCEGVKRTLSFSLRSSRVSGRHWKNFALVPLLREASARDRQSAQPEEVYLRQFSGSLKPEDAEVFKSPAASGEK
Chain of Transient receptor potential cation channel subfamily A member 1 (Homo sapiens, UniProt O75762) (O75762 whole entry): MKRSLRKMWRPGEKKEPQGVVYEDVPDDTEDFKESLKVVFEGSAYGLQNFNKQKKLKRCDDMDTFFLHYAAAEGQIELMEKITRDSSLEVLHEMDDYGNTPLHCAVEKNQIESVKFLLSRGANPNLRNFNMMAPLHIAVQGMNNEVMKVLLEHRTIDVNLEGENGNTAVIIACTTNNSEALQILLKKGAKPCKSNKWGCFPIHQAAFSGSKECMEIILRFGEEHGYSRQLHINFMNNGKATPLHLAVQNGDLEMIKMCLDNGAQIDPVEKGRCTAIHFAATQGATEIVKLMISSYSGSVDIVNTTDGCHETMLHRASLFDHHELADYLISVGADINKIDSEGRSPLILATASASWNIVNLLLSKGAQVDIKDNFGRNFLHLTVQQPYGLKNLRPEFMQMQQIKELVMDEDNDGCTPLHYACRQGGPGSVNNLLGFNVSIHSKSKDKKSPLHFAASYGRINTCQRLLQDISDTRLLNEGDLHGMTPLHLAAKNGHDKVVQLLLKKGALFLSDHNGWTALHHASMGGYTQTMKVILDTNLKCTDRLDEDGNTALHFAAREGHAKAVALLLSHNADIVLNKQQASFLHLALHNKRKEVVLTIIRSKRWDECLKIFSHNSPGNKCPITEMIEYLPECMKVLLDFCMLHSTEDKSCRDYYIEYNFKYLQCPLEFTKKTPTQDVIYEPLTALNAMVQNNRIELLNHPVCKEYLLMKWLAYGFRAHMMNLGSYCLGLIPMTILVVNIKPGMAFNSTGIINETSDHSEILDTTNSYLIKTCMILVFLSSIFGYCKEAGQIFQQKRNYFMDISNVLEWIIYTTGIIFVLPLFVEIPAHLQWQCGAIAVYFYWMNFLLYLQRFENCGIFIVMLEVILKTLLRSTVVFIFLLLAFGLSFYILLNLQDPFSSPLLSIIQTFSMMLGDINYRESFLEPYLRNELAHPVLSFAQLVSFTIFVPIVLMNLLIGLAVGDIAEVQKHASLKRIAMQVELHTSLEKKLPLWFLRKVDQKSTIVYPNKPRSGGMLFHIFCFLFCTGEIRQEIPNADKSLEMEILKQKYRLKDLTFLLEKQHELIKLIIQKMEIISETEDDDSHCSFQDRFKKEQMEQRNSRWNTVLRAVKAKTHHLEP

SMILES	IC50 [1] [µM]	Efficacy [2] [%]	Efficacy [3] [%]	EC50 [4] [µM]	IC50 [5] [µM]	IC50 [6] [µM]	IC50 [7] [µM]	IC50 [8] [µM]	IC50 [9] [µM]	IC50 [10] [µM]	IC50 [11] [µM]
COc1ccccc1/C=C/c1ccccc1	1.7	< 10	83.4	0.88	> 10	–	–	–	–	–	–
Oc1cc(O)cc(/C=C/c2ccccc2)c1 [PINOSYLVIN]	12.1	< 10	< 10	–	> 10	–	–	–	–	–	–
COc1ccc(/C=C/c2ccccc2)cc1	17.8	< 10	49	2.4	> 10	12.1	–	–	–	–	–
COc1ccc(/C=C/c2cc(OC)cc(OC)c2)cc1 [TRISMETHOXYRESVERATROL]	3	< 10	72.5	1.7	> 10	–	–	–	–	–	–
CC(=O)Oc1ccc(/C=C/c2ccccc2)cc1	29.4	< 10	89.7	16.3	> 10	–	–	–	–	–	–
COc1cc(/C=C/c2ccc(O)cc2)cc(OC)c1 [PTEROSTILBENE]	7.5	< 10	71.1	3.6	> 10	–	–	–	–	–	–
COc1cccc(/C=C/c2ccccc2)c1	2.3	< 10	101	1.7	> 10	–	–	–	–	–	–
Oc1ccc(/C=C/c2ccc(O)cc2)cc1 [TRANS-4,4'-DIHYDROXYSTILBENE]	25.2	< 10	40	11	> 10	–	–	–	–	–	–
CC(=O)Oc1ccccc1/C=C/c1ccccc1	8.6	< 10	135	7.2	> 10	–	–	–	–	–	–
CC(=O)Oc1ccc(/C=C/c2cc(OC(C)=O)cc(OC(C)=O)c2)cc1 [TRIACETYLRESVERATROL]	11.8	< 10	127	7.5	> 10	–	–	–	–	–	–
COc1ccc(/C=C/c2ccc(OC)cc2)cc1	10.6	< 10	86.7	4.2	> 10	–	–	–	–	–	–
Oc1cccc(/C=C/c2ccccc2)c1 [(E)-3-STILBENOL]	3.4	< 10	77.4	1.8	> 10	–	–	–	–	–	–
COc1cc(/C=C/c2ccccc2)cc(OC)c1 [3,5-O-DIMETHYLPINOSYLVIN]	3.4	< 10	84.1	1.7	> 10	–	–	–	–	–	–
COc1cccc(/C=C/c2ccc(O)cc2)c1 [(E)-5-METHOXY-4'-STILBENOL]	10.1	< 10	41.8	6.6	> 10	–	–	–	–	–	–
Oc1ccc(/C=C/c2cc(O)cc(O)c2)cc1 [RESVERATROL]	19.9	–	< 10	–	–	–	0.75	2.74	–	–	–
Oc1ccccc1/C=C/c1ccccc1	2.2	< 10	88.4	0.58	> 10	–	–	–	–	–	–
COc1ccc(/C=C/c2ccc(O)cc2)cc1	10	< 10	72.1	10.1	> 10	–	–	–	–	–	–
Oc1ccc(/C=C/c2ccccc2)cc1 [(E)-4-STYRYLPHENOL]	5.5	< 10	61.9	8.4	> 10	–	–	–	–	–	–
COc1ccc(/C=C/c2cccc(OC)c2)cc1	2.9	< 10	75	1.5	> 10	–	–	–	–	–	–
Oc1ccc(/C=C/c2cccc(O)c2)cc1 [(E)-3,4'-STILBENDIOL]	16.5	< 10	73.4	13.5	> 10	–	–	–	–	–	–
COc1cc(O)cc(/C=C/c2ccccc2)c1 [PINOSYLVIN METHYL ETHER]	6.9	< 10	71.4	3.5	> 10	–	–	–	23.7	30	15
